The subject of test [1] is EOL-1 cells. As to the kind of experiment: Combination with BCL2 inhibitor ABT-199 in AML cell lines, 7-day cell proliferation assay. The class given is cell-based. The settings on record: Homo sapiens, EOL1, 168 h; EOL-1, treatment duration 7 Days; single agent or combination; read-out: Absolute IC50 (cell proliferation). Here is the method:
(§1) On day 1, plate GDM-1 [ATCC®, maintained throughout in GDM-1 assay medium: RPMI-1640 medium/20% heat-inactivated FBS (GIBCO®)] and EOL-1 cells [ATCC®, maintained throughout in EOL-1 assay medium: RPMI-1640 medium/10% heat-inactivated FBS (GIBCO®)] at 4000 and 10000 cells/well (100 μL/well) respectively, in a 96-well assay plate (BD FALCON® 35-3219). Incubate the plates in a 37° C. incubator (5% CO2) for 18-24 hr. On day 2, prepare 2.0% DMSO with assay medium (as indicated above or RPMI-1640/20% heat-inactivated FBS and RPMI-1640/10% FBS for GDM-1 and EOL-1, respectively) and add 100 μL to columns 3-12 in a preparation plate. Prepare test compounds ABT-199 at 10 μM in 2% DMSO and PRMT5 inhibitor Example 1 at 25 μM in 2% DMSO and dispense into wells A2 and B2, respectively, followed by serial dilution (1:3, 10 points) to wells A11 and B11, respectively. For combinational treatment, serially dilute test compound examples at 1:2 in assay medium (as indicated above or RPMI-1640/20% heat-inactivated FBS and RPMI-1640/10% FBS for GDM-1 and EOL-1, respectively) in wells C2-C11 (0.1 μM) to H2-H11, then serially dilute test compound ABT-199 1:3 from C2-H2 (1.0 μM) to C11-H11. […] Incubate plates for 10-15 min at room temperature before reading. Measure luminescence using the PERKIN-ELMER® ENVISION® Multi-Label Reader. […]

The subject of test [2] is GDM-1 cells. As to the kind of experiment: Combination with BCL2 inhibitor ABT-199 in AML cell lines, 4-day cell proliferation assay. The class given is cell-based. Conditions: Homo sapiens, 96 h; GDM-1, treatment duration 4 Days; single agent or combination; read-out: Absolute IC50 (cell proliferation). How it is done:
as §1

For test [3], the system named is A375 (melanoma) cells. As to the kind of experiment: Xenograft tumor model, melanoma (A375). The settings on record: 4-day-on and 3-day-off schedule for 26 days, oral gavage. In kind it is in vivo, mouse. How it is done:
The purpose of this assay is to measure in a mouse model of cancer the reduction in tumor volume in response to test compound administration.
Grow A375 (melanoma) cells in DMEM/High glucose (HYCLONE™ cat. # SH30022) with 10% HI FBS (GIBCO® cat. #10082-147). Grow Will-2 (DLBCL) cells in RPMI 1640 with L-glutamine and 20% heat inactivated FBS. Grow Namalwa (Burkitt's lymphoma) cells (ATCC) in RPMI 1640 media supplemented with L-glutamine, 25 mM HEPES (GIBCO® 22400-089), 1 mM sodium pyruvate and 7.5% FBS. Grow Molt 4 cells in RPMI 1640 with L-glutamine, 25 mM HEPES [GIBCO 22400-089], 1 mM sodium pyruvate, and 10% FBS. Harvest cells and inject subcutaneously onto the rear flank of nude mice (A375: 5×10^6 cells/animal, mixed 1:1 with MATRIGEL®; Will-2; 1×10^7 cells/animal; Namalwa: 2×10^6 cells/animal; Molt 4: : 5×10^6 cells/animal, mixed 1:1 with MATRIGEL®). When tumors are established (approximately 200 mm^3, 7-21 days after implant), randomize animals, and group them into control and test groups. Formulate the test compound in 1% HEC/0.25% TWEEN®-80/0.05% Antifoam. Administer test compound and vehicles by oral gavage. Determine tumor response by tumor volume measurement (caliper) performed twice a week during the course of treatment and report as the percent inhibition of tumor volume versus the vehicle control group.

Turning to `Nc1ncnc2c1ccn2[C@@H]1O[C@H]([C@H](O)c2ccc(Cl)cc2)[C@@H](O)[C@H]1O` [Example 1, (2R,3R,4S,5R)-2-(4-Aminopyrrolo[2,3-d]pyrimidin-7-yl)-5-[(R)-(4-chlorophenyl)-hydroxy-methyl]tetrahydrofuran-3,4-diol], the IC50 in test [1] was 6 nM; in test [2], 224 nM. For the same molecule, the “percent inhibition of tumor volume versus vehicle” value in test [3] (10 mg/kg QD) stood at 64%; in test [3] (15 mg/kg), 71%.

Source of the values: patent US9840532B2, “5′-substituted nucleoside compounds” (Eli Lilly and Company, priority 2015, dated 2017).
